# “Also recorded” adds a separate entry of the source. Where two headings read alike, the source gives them in different places.
# Experiments:
# connexin 43 (Cx43) = test: Immunofluorescent distribution of gap junction protein in LA; assay type: in vivo, canine; settings: CHF and CHF+PFD groups
# Description: (§1) The distribution of gap junction proteins connexin 43 (Cx43) and connexin 40 (Cx40) in atrial tissue was also studied. Atrial specimens were incubated with mouse monoclonal antibody against Cx40 and rabbit polyclonal antibody against Cx43 (Dako) overnight at 4° C. Subsequently, incubation with FITC-labeled goat anti-rabbit (for Cx43) and Texas Red-labeled donkey anti-mouse (for Cx40) antibodies (Jackson ImmunoResearch Laboratories, West Grove, Pa.) was performed. The specimens were processed and analyzed with fluorescent microscopy.
# connexin 40 (Cx40) = test: as above; assay type: in vivo, canine; settings: CHF and CHF+PFD groups
# Description: as §1
# IL-10 = test: Western blot of atrial tissue; assay type: in vivo, canine; settings: 3 groups
# TGF-β1 = settings: cited from earlier work
# [1] = system: tissue inhibitor of metalloproteinase (TIMP)-4; test: Western blot of atrial tissue; assay type: in vivo, canine; settings: 3 groups
compound,measurement,setting,value
"Cc1ccc(=O)n(-c2ccccc2)c1 [PFD, 5-methyl-1-phenyl-2-(1H)-pyridone]","Spatial distribution of Cx43 in LA, treated vs untreated",connexin 43 (Cx43),did not appear markedly different
same,"Spatial distribution of Cx40 in LA, treated vs untreated",connexin 40 (Cx40),did not appear markedly different
same,Expression of IL-10,IL-10,unchanged; also recorded: not markedly different
same,Expression of TGF-β1,TGF-β1; animal models of lung fibrosis (Iyer et al.),significantly reduce
same,Expression of TGF-β1,TGF-β1; hepatic fibrosis (Garcia et al.),significantly reduce
same,Expression of TGF-β1,TGF-β1; renal tubulointerstitial fibrosis (Shihab et al.),significantly reduce
same,Expression of TIMP-4,[1],unchanged; also recorded: not markedly changed
